Results reported in ChEMBL document CHEMBL3132820, “Dinaphthonaphthyridines a class of novel molecules with potent antioxidant and anticancer activity” (Medchemcomm, 2013).
Values after ≈ are worked out from the molar mass of the structure shown.

Assays:
AGS = test: Cytotoxicity against human AGS cells after 48 hrs by MTT assay; format: functional, cell-based
HCT-116 = test: Cytotoxicity against human HCT116 cells after 48 hrs by MTT assay; format: functional, cell-based; conditions: HCT-116, 48 h
HeLa = test: Cytotoxicity against human HeLa cells after 48 hrs by MTT assay; format: functional, cell-based
[1] = Antioxidant activity assessed as ABTS radical scavenging activity after 30 mins by spectrophotometry; format: functional
[2] = Antioxidant activity assessed as hydroxyl radical scavenging activity after 15 mins by spectrophotometry; format: functional
[3] = Antioxidant activity assessed as superoxide anion radical scavenging activity after 90 seconds by formazan method; format: functional
[4] = test system: Radical scavenging activity; test: Antioxidant activity assessed as DPPH radical scavenging activity; format: functional

Row | Structure (SMILES) | IC50 (AGS) [µM] | IC50 (HCT-116) [µM] | IC50 (HeLa) [µM] | IC50 [1] [µg/mL] | IC50 [2] [µg/mL] | IC50 [3] [µg/mL] | IC50 [4] [µg/mL]
1 | Cc1cc(Nc2cccc3ccccc23)c2ccc3ccccc3c2n1 | 4.01 | 5.61 | 3.45 | 115.2 (≈ 344 µM) | 62.3 (≈ 186 µM) | 186.2 (≈ 557 µM) | 18.2 (≈ 54.4 µM)
2 | Cc1nc2c3ccccc3ccc2c2nc3c(ccc4ccccc43)c(C)c12 | > 80 | > 80 | > 80 | 128.5 (≈ 358 µM) | 89.6 (≈ 250 µM) | 194.5 (≈ 543 µM) | 46.6 (≈ 130 µM)
3 | Cc1nc2c3ccccc3ccc2c2nc3c(ccc4ccccc43)c(-c3ccccc3)c12 | > 80 | > 80 | > 80 | 164.3 (≈ 391 µM) | 84.6 (≈ 201 µM) | 188.1 (≈ 447 µM) | 31.3 (≈ 74.4 µM)
4 | Cc1ccc(-c2c3ccc4ccccc4c3nc3c2c(C)nc2c4ccccc4ccc32)cc1 | > 80 | 67 | 72.2 | 123.3 (≈ 284 µM) | 68.7 (≈ 158 µM) | 191.5 (≈ 441 µM) | 24.5 (≈ 56.4 µM)
5 | Cc1nc2c3ccccc3ccc2c2nc3c(ccc4ccccc43)c(-c3ccccc3Cl)c12 | 52.5 | 48.2 | > 80 | 118.1 (≈ 260 µM) | 74.6 (≈ 164 µM) | 170 (≈ 374 µM) | 43 (≈ 94.5 µM)
6 | COc1ccc(-c2c3ccc4ccccc4c3nc3c2c(C)nc2c4ccccc4ccc32)cc1 | 66.4 | > 80 | 45.9 | 132.5 (≈ 294 µM) | 82.3 (≈ 183 µM) | 176.4 (≈ 392 µM) | 27.5 (≈ 61 µM)
7 | Cc1nc2c3ccccc3ccc2c2nc3c(ccc4ccccc43)c(-c3cccc([N+](=O)[O-])c3)c12 | 25.5 | 13.2 | 50.7 | 116.8 (≈ 251 µM) | 54.2 (≈ 116 µM) | 157.3 (≈ 338 µM) | 33.3 (≈ 71.5 µM)
8 | Cc1nc2c3ccccc3ccc2c2nc3c(ccc4ccccc43)c(-c3ccc(O)cc3)c12 | 14.2 | 3.19 | 4.63 | 86.4 (≈ 198 µM) | 44.1 (≈ 101 µM) | 99 (≈ 227 µM) | 10.4 (≈ 23.8 µM)
9 | Cc1nc2c3ccccc3ccc2c2nc3c(ccc4ccccc43)c(-c3ccccc3N)c12 | 12.1 | 4.76 | 16.2 | 95.4 (≈ 219 µM) | 45.6 (≈ 105 µM) | 124.6 (≈ 286 µM) | 17.5 (≈ 40.2 µM)
10 | Cc1nc2c3ccccc3ccc2c2nc3c(ccc4ccccc43)c(-c3cc([N+](=O)[O-])ccc3N)c12 | 17.8 | 6.01 | 5.77 | 93.1 (≈ 194 µM) | 43.3 (≈ 90.1 µM) | 110.1 (≈ 229 µM) | 11.3 (≈ 23.5 µM)
11 | Cc1nc2c3ccccc3ccc2c2nc3c(ccc4ccccc43)c(-c3ccccc3S)c12 | 4.07 | 1.42 | 3.19 | 89 (≈ 197 µM) | 49.6 (≈ 110 µM) | 158.3 (≈ 350 µM) | 10.2 (≈ 22.5 µM)
12 | Cc1nc2c3ccccc3ccc2c2nc3c(ccc4ccccc43)c(-c3cccc4ccccc34)c12 | 12.1 | 20.8 | 14.9 | 110.5 (≈ 235 µM) | 64.3 (≈ 137 µM) | 179.3 (≈ 381 µM) | 26.1 (≈ 55.5 µM)
13 | Cc1nc2c3ccccc3ccc2c2nc3c(ccc4ccccc43)c(-c3cccnc3)c12 | 3.96 | 34.2 | 3.86 | 98.2 (≈ 233 µM) | 63.6 (≈ 151 µM) | 156.1 (≈ 370 µM) | 16.9 (≈ 40.1 µM)
14 | Cc1nc2c3ccccc3ccc2c2nc3c(ccc4ccccc43)c(-c3cc(O)nc4ccccc34)c12 | 15.8 | 4.63 | 4.88 | 92.1 (≈ 189 µM) | 44.8 (≈ 91.9 µM) | 147.7 (≈ 303 µM) | 14.1 (≈ 28.9 µM)
15 | Cc1nc2c3ccccc3ccc2c2nc3c(ccc4ccccc43)c(-c3nccnc3N)c12 | 2.26 | 3.56 | 1.21 | 81.7 (≈ 187 µM) | 47.8 (≈ 109 µM) | 133.9 (≈ 306 µM) | 12 (≈ 27.4 µM)
16 | COc1ccc(O)c(C(C)(C)C)c1.COc1ccc(O)cc1C(C)(C)C [BUTYLATED HYDROXYANISOLE] | – | – | – | 96.8 | 75.7 | 79.6 | 9.7
17 | COc1cccc2c1C(=O)c1c(O)c3c(c(O)c1C2=O)C[C@@](O)(C(=O)CO)C[C@@H]3O[C@H]1C[C@H](N)[C@H](O)[C@H](C)O1 [DOXORUBICIN] | 10.9 | 8.7 | 6.3 | – | – | – | –
